Laboratory results reported in publication PMC10385664, “Projection of Target Drug Particle Size in Oral Formulations Using the Refined Developability Classification System (rDCS)” (Pharmaceutics, 2023).

Test system: Caco-2 cells
Experiment: Caco-2 permeability assay (pH 6.5/7.4 gradient, ± elacridar)
Settings: Caco-2, 10 µM, apical pH 6.5 / basolateral pH 7.4, 120 min, without inhibitor
Method: In vitro permeability studies were performed at Cyprotex Discovery Ltd. (Macclesfield, UK) using a high-throughput Caco-2 permeability assay. Permeability at 37 °C was assessed from the apical to basolateral side (A⟹B) and in opposite direction (B⟹A) applying a pH gradient with pH 6.5 in the apical and pH 7.4 in the basolateral compartment (Hanks Balanced Salt Solution, HBSS). After an incubation of 120 min, samples were diluted for analysis via liquid chromatography coupled with tandem mass spectrometry (LC-MS/MS). […] Experiments were performed in absence and presence of the P-glycoprotein (P-gp) inhibitor elacridar (10 µM) to study transporter-mediated efflux effects. The dosing solutions contained the API (10 µM) in HBSS, and DMSO in a concentration of ≤1% v/v. Lucifer yellow (100 µM) was included as fluorescent integrity marker. Further experimental details are provided in Supplementary Materials.
The apparent permeability coefficients (Papp) were calculated according to Equation (27):(27) Papp=dQ/dt/C0·A where dQ/dt is the permeation rate of the API across the cell monolayer, C0 is the starting concentration of the API in the dosing solution and A is the surface area of the cell monolayer. The efflux ratios (ERs) were calculated from the B⟹A and A⟹B Papp values to estimate whether P-gp mediated efflux was involved in the transport of the APIs. The mass balance (% recovery) was calculated from the sum of the API recovered from the acceptor and donor compartments at the end of the experiment, divided by the initial donor amount.
Table S6. Gradient of the UPLC method for analysis of lemborexant.
Table S7. Gradient of the UPLC method for analysis of istradefylline.
S.2.5. rDCS Standard Investigations: Caco‐2 permeability studies
Caco‐2 cells were obtained from the American Type Culture Collection (ATCC, Manassas, VA, USA) and used between passage numbers 40 to 60. The cells were seeded onto Millipore Multiscreen Transwell plates at a density of 1 x 10^5 cells/cm2 and cultured in Dulbeccoʹs Modified Eagleʹs Medium (DMEM). The medium was changed every two or three days. Ce l l culture was carried out at 37 °C in an atmosphere of 5 % CO2 with a relative humidity of 95 %. The permeability assay was performed on day 20.
In vitro permeability was assessed wit h a high‐throughput Caco‐2 permeability assay. The assay was prepared by rinsing apical and basolateral monolayer surfaces twice with Hanks Balanced Salt Solution (HBSS) at the desired pH and 37 °C. Subsequently, cells in the apical and basolateral compartments were incubated with HBSS at the desired pH for 40 min. A pH gradient with pH 6.5 in the apical compartment and pH 7.4 in the basolateral compartment was applied. Dosing solutions containing the API (10 μ M) were prepared by diluting a concentrated API solution in DMS O with HBSS. The final DMSO concentration was ≤ 1% v/v. Lucifer yellow (100 μM) was included in the dosing solution as fluorescent integrity marker. For the assessment of the permeability from the apical to basolateral side (A⟹B), HBSS in the apical compartment was replaced with the dosing solution. The apical inserts were placed into a companion plat e containing fresh buffer with 1% v/ v DMSO. For the assessment of the permeability from the basolateral to […]
apical side (B⟹A), HBSS was removed from the companion plate and replaced with the solution of drug in HBSS. Fresh HBSS was added to the apical insert, which was then placed into the companion plate.
Experiments were performed in absence and presence of the P‐glycoprotein (P‐gp) inhibitor elacridar (10 μM) to study transporter‐mediated efflux effects. In those experiments, elacridar was included in both compartments during the equilibration time and assay. The starting concentration (C0) was confirmed by sampling from the dosing solution immediately before dosing into the cell pl ates. After incubation of 120 minutes, the apical inserts and companion plates were separated for sampling from both compartments.

For `CC(C)NCC(O)COc1cccc2ccccc12` (stereo not shown) [propranolol], the “Papp(A⟹B)” value was 13.0 ± 0.7 ×10^−6 cm/s.
